{"source": "patent US10960037B2", "about": "“Method of treating neurological conditions with extract of Nerium species or Thevetia species” (PHOENIX BIOTECHNOLOGY, INC., priority 2010, dated 2021)", "key": {"[1]": {"test_system": "healthy cortical pyramidal neurons in brain slices subjected to OGD", "assay": "Brain slice-based oxygen-glucose deprivation (OGD) \"stroke\" neuroprotection assay", "type": "cell-based, Sprague-Dawley rat", "settings": "result in words", "experimental": "Example 8 provides a detailed description of an in vitro assay used to evaluate the efficacy of the extract, or fraction thereof, or composition thereof, for the treatment of stroke-mediated ischemic neuronal injury. The assay is a brain slice-based assay for oxygen and glucose deprivation (OGD) used to induce 50% loss of healthy cortical neurons by 24 hours. The parent unfractionated SCF extract of Nerium species, e.g. Nerium oleander, is used as a positive control. The parent extract is then fractionated according to Example 13 to provide a fraction of extract of Nerium species. The fractions are analyzed according to Examples 6, 14 and 17.\nNeocortical brain slices were prepared from PND 7 Sprague-Dawley rat pups. The cerebral cortex was dissected, cut into 400-μ-thick slices and transferred into a container containing cold artificial cerebrospinal fluid with 1 μM MK-801 before plating; MK-801 was not included in any subsequent procedures. To mimic ischemic injury using transient oxygen-glucose deprivation (OGD), slices from one hemisphere of each brain were exposed to glucose-free, N2-bubbled artificial cerebrospinal fluid for 7.5 min in a low 02 (0.5%) environment. The OGD slices were then plated side-by-side with control slices from the contralateral hemisphere on nitrocellulose or Millicell (Millipore) permeable membranes, which were prepared identically except for no OGD. Thirty minutes after plating, the brain slice pairs were transfected, transferred to 24-well plates, and incubated at 37° C. under 5% CO2 in humidified chambers. In each experiment, 5-6 minutes of oxygen-glucose deprivation (OGD) was used to induce >50% loss of healthy cortical neurons by 24 hrs. A set concentration (3 μM) of neriifolin (a cardiac glycoside) was used as the internal positive control. […] A neuroprotective composition can be used as described herein for oleandrin.\nCoronal brain slices (250 μm thick) were prepared from postnatal day 10 Sprague-Dawley rat pups of either gender (Charles River) and established in organotypic culture. Animals were sacrificed in accordance with NIH guidelines and under Duke IACUC approval and oversight. […]\n(§1) For all brain slice assays, numbers of healthy pyramidal neurons in the cortical regions of each brain slice were imaged on a Leica MZIIIFL fluorescence stereomicroscope. Cortical pyramidal neurons were readily identified by their characteristic positions and orientations in the cortical plate, and by their prominent extension of a single, apical dendrite radially towards the pial surface. […]"}, "[2]": {"test_system": "ARE target genes Gclm, Nqo1, Srx, Hmox1", "assay": "ARE target gene expression by qPCR, rat co-cultures", "type": "cell-based", "settings": "for expression of ARE target genes: 6 h", "experimental": "FIG. 17 depicts the results of expression assays for Fraction 0-4 and the individual triterpenes oleanolic acid, ursolic acid, betulinic acid and uvaol. “X” symbols denote concentrations of compounds which induced toxicity and for which recovery of residual mRNA was insufficient to support qPCR analysis. Rat primary corticostriatal co-cultures were treated for 6 h with Fraction 0-4 (in μg/ml) or oleanolic acid, ursolic acid, betulinic acid, or uvalol (all in μM) at the concentrations indicated, then harvested and processed for qPCR analysis of the ARE target genes shown. Quantitative RNA values were normalized to the GAPDH reference control and fold-expression changes are expressed relative to the DMSO-carrier only condition (“--”) set to a value of 1. Dark bars denote statistically significant differences with respect to the DMSO-carrier only control by a Student's t-test at p<0.05.\nFIG. 18 depicts the results of expression assays for Fraction 0-4 and the individual triterpenes ursolic acid and betulinic acid at more similar concentration ranges. Rat primary corticostriatal co-cultures were treated for 6 h with Fraction 0-4 (in μg/ml) or ursolic acid and betulinic acid (in μM) at the concentrations indicated, then harvested and processed for qPCR analysis of the ARE target genes shown. Quantitative RNA values were normalized to the GAPDH reference control and fold-expression changes are expressed relative to the DMSO-carrier only condition (“--”) set to a value of 1. Dark blue bars denote statistically significant differences with respect to the DMSO-carrier only control by a Student's t-test at p<0.05.\nFor qPCR quantification of ARE target gene expression levels, cortical and striatal neurons were plated onto 96-well plates containing mature glial cultures and cultured for 96 h. Fraction 0-4 was added to cultures at the indicated concentrations for 6 h. At the end of the treatment period, cells were lysed and total RNA was isolated using Absolutely RNA mini-prep kits (Agilent Technologies/Stratagene). cDNA was generated using oligo dT primers and Superscript II reverse transcriptase (Invitrogen). Resulting cDNA was used for quantitative PCR of gene transcripts using SYBR Green Real-Time PCR Master Mix (Life Technologies) and the following mouse primers, for: Gclc (forward-5′ […]-3′ and reverse-5′-[…]-3′), Nqo1 (forward-5′-GCCCGCATGCAGATCCT-3′ and reverse 5′-[…]3′), Srx (forward-5′-[…]-3′ and reverse-5′-[…]-3′), and Hmox1 (forward-5′-[…]-3′ and reverse-5′-[…]-3′) (Integrated DNA Technologies). […] Each biological sample was measured in triplicate on a ViiA 7 real-time PCR instrument (Applied Biosystems); fold expression was calculated after normalization to corresponding control GAPDH levels."}, "[3]": {"test_system": "cortical pyramidal neurons in APP-transfected brain slices", "assay": "Brain slice APP/Aβ-induced degeneration \"Alzheimer's\" assay", "type": "cell-based, rat", "settings": "result in words", "description": "Example 9 provides a detailed description of an in vitro assay used to evaluate the efficacy of the extract for the treatment of Alzheimer's disease. The assay is a brain slice-based assay for APP/Aβ-induced (APP: amyloid precursor protein) degeneration of cortical pyramidal neurons. Upon cleavage by a secretase enzyme, the APP is reduced to Aβ peptides which are believed to be a causative factor in beta-amyloid plaque formation. Aβ proteins are associated with beta-amyloid plaque formation and are believed to be a hallmark if not etiologic factor in Alzheimer's disease. […]\nThe APP-WT brain slice-based Alzheimer's assay was repeated (Example 11) using fractions of the SCF extract of Nerium oleander. The number of healthy cortical neurons was determined following APP/Aβ-induced degeneration in the presence of varying amounts of fraction 0-4A of the SCF extract (0.01 to 100 μg/ml). […]\nas §1"}, "[4]": {"test_system": "cortical and striatal neurons transfected with mutant htt", "assay": "Cortico-striatal co-culture \"Huntington's disease\" assay", "type": "cell-based", "description": "Example 10 provides a detailed description of an assay used to evaluate the efficacy of the extract (or fraction thereof) for the treatment of Huntington's disease. Mutant htt protein is introduced via electroporation into high-density, mixed co-cultures of cortical neurons, striatal neurons, and glia. The striatal and cortical neurons are transfected with different color fluorescent proteins thereby facilitating the separate identification of the different types of neurons in the co-culture. The color fluorescent proteins are fluorescent and ‘emit’ color upon activation with a light source of appropriate wavelength. […] Such other agents can be used along with or in the absence of oleandrin or other cardiac glycoside.\nIn this assay, instead of using intact brain slices, mutant htt is introduced via electroporation into high-density, mixed co-cultures of cortical neurons, striatal neurons, and glia arrayed in 96-well plates. […] In this assay, over the course of 1-2 weeks in vitro, transfected mutant htt constructs induce the progressive degeneration of both striatal and cortical neurons that are subsequently quantified using automated image acquisition and object detection algorithms on the Cellomics Arrayscan VTI platform. […] In a full run, some 25,000 images are collected and analyzed in each cycle, 4 cycles per week. […]"}, "[5]": {"test_system": "cortical neurons in \"non-OGD\" brain slices", "assay": "Non-stroke (non-OGD) brain slice assay", "type": "cell-based, Sprague-Dawley rat", "settings": "sliced and YFP-transfected, no OGD", "experimental": "Neuroprotective composition, oleandrin, PBI-05204 (an unfractionated SCF extract of Nerium oleander) or a fraction of the extract (PBI-04711) were tested on “nonstroked” brain slices; that is, ones that were sliced and transfected with YFP but not subjected to additional trauma via OGD. See experimental procedure outlined above."}}, "note": "Entries after “also recorded” stand apart in the source; their conditions may differ.", "data": [{"smiles": "CC1(C)CC[C@]2(C(=O)O)CC[C@]3(C)C(=CC[C@@H]4[C@@]5(C)CC[C@H](O)C(C)(C)[C@@H]5CC[C@]43C)[C@@H]2C1", "note": "[Oleanolic acid, oleanolic acid]", "values": [{"measurement": "cellular toxicity", "setting": "[1]", "result": "not exhibited observable cellular toxicity"}, {"measurement": "neuroprotection in brain slice OGD assay", "setting": "[1]", "result": "robust neuroprotection"}, {"measurement": "neuroprotection in brain slice OGD assay", "setting": "[1]; listed as OA", "result": "accounts for a majority of the neuroprotective activity; also recorded: substantially higher activity than UA"}, {"measurement": "expression of ARE target genes", "setting": "[2]", "result": "robust upregulation of canonical ARE target genes"}]}, {"smiles": "CO[C@H]1C[C@H](O[C@H]2CC[C@@]3(C)[C@H](CC[C@@H]4[C@@H]3CC[C@]3(C)[C@@H](C5=CC(=O)OC5)[C@@H](OC(C)=O)C[C@]43O)C2)O[C@@H](C)[C@@H]1O", "note": "[Oleandrin, oleandrin]", "values": [{"measurement": "neuroprotection in APP brain slice assay", "setting": "[3]", "result": "concentration-dependent neuroprotection"}, {"measurement": "potency relative to KW6002", "setting": "[4]; FIGS. 3A-3D", "result": "~100", "unit": "fold"}, {"measurement": "efficacy (surviving neurons) in cortico-striatal co-culture assay", "setting": "[4]; result in words", "result": "more effective than KW6002; also recorded: strongest hits; also recorded: on par with KW6002"}]}, {"smiles": "C[C@H]1[C@H](C)CC[C@]2(C(=O)O)CC[C@]3(C)C(=CC[C@@H]4[C@@]5(C)CC[C@H](O)C(C)(C)[C@@H]5CC[C@]43C)[C@H]12", "note": "[Ursolic acid, ursolic acid]", "values": [{"measurement": "neuroprotection in brain slice OGD assay", "setting": "[1]; listed as UA", "result": "lower activity; also recorded: rise and fall in activity as concentration is increased"}, {"measurement": "expression of ARE target genes", "setting": "[2]", "result": "robust upregulation of canonical ARE target genes; also recorded: clear upregulation of Srx and Hmox1"}, {"measurement": "expression of ARE target genes", "setting": "[2]; listed as UA", "result": "due more so to the activity of UA than of OA or BA"}]}, {"smiles": "C=C(C)[C@@H]1CC[C@]2(C(=O)O)CC[C@]3(C)[C@H](CC[C@@H]4[C@@]5(C)CC[C@H](O)C(C)(C)[C@@H]5CC[C@]43C)[C@@H]12", "note": "[Betulinic acid, betulinic acid]", "values": [{"measurement": "toxicity in co-cultures", "setting": "[2]", "result": "toxicity at higher concentrations"}]}, {"smiles": "CO[C@H]1[C@H](O)[C@H](O[C@H]2CC[C@@]3(C)[C@H](CC[C@@H]4[C@@H]3CC[C@]3(C)[C@@H](C5=CC(=O)OC5)CC[C@]43O)C2)O[C@@H](C)[C@@H]1O", "note": "[neriifolin]", "values": [{"measurement": "neuroprotection of non-OGD brain slices", "setting": "[5]", "result": "modest levels of neuroprotection"}]}]}
